US10556896B2, “Crystalline forms of (3-Amino-oxetan-3-ylmethyl)-[2-(5,5-dioxo-5,6,7,9-tetrahydro-5lambda*6*-thia-8-aza-benzocyclohepten-8-yl)-6-methyl-quinazolin-4-yl]-amine” (Hoffmann-La Roche Inc., priority 2016, dated 2020)
In brackets after ≈: the same amount, converted by molar mass.

Assays:
Format in all cases: physicochemical
[1] = Chemical stability of crystal forms (storage, HPLC chemical purity)
Protocol: HPLC condition is disclosed here in Table 1-1. [table] 40 mg compound (I) of crystal Forms C, E and F were stored in stability chamber with temperature and humidity controlled as 50° C. and 40° C./75% RH respectively, 40 mg compound (I) of Form B was stored at 105° C. oven. After each time point, the samples were analyzed by HPLC to check their chemical purity and compared with their initial value.

[2] = Equilibrium aqueous solubility in bio-relevant media (SGF, FaSSIF, FeSSIF); details: for Final pH (FaSSIF) / Final pH (FeSSIF) / Final pH (SGF): after equilibration at 25° C. for 24 hours
Protocol: Aqueous solubility was determined by suspending 10 mg compound in different bio-relevant media including SGF, FaSSIF and FeSSIF. The suspension was equilibrated at 25° C. for 24 hours then the final pH was measured. The suspension was then filtered through a 0.22 um PVDF filter into a 2-mL HPLC vial. The quantitation was conducted by HPLC (described in Example 10) with reference to a standard solution.

[3] = Hygroscopicity of crystal forms by dynamic vapour sorption (DVS); details: for Hygroscopicity, water sorption @80% RH: 25° C.; for Hygroscopicity (result in words): compared with Form D
Protocol: Dynamic vapour sorption (DVS) was tested using a DVS intrinsic from SMS (Surface Measurement Systems Co. Ltd.). 20 mg compound (I) of each crystal form was placed in an aluminium sample pan and recorded the sample weight change under different humidity. The DVS method parameters were set according to Table 16, and the method was run by the machine based on such parameters. [table]

| Structure (SMILES) | Chemical Purity, % ([1]; 40° C./75% RH, 1 month) | Chemical Purity, % ([1]; 50° C., 1 month) | Chemical Purity, % ([1]; Initial) | S, mg/mL (FaSSIF) ([2]; 25° C., 24 hours) | Final pH (FaSSIF) [2] | solubility thermodynamic at 24 h ([2]; FeSSIF, 25 °C, fessif, thermodynamic from solid, FeSSIF, 25° C., 24 hours, read-out: S, mg/mL (FeSSIF)) | Final pH (FeSSIF) ([2]; FeSSIF) | S, mg/mL (SGF) ([2]; 25° C., 24 hours) | Final pH (SGF) [2] | Hygroscopicity, water sorption @80% RH [3] | Hygroscopicity (result in words) [3] | S, mg/mL (FeSSIF) ([2]; FeSSIF, 25° C., 24 hours) | Chemical Purity, % ([1]; 105° C., 24 hr) |
| --- | --- | --- | --- | --- | --- | --- | --- | --- | --- | --- | --- | --- | --- |
| Cc1ccc2nc(N3CCS(=O)(=O)c4ccccc4C3)nc(NCC3(N)COC3)c2c1 [Example 5, Form E of compound (I), (3-Amino-oxetan-3-ylmethyl)-[2-(5,5-dioxo-5,6,7,9-tetrahydro-5lambda*6*-thia-8-aza-benzocyclohepten-8-yl)-6-methyl-quinazolin-4-yl]-amine] | 99.14% | 99.45% | 99.49% | 0.90 mg/mL | 5.31 | 2.18 mg/mL (≈ 4.96 mM) | 5.34 | >5 mg/mL | 4.69 | 1.12% water sorption @80% RH | much improved hygroscopicity than Form D | – | – |
| Cc1ccc2nc(N3CCS(=O)(=O)c4ccccc4C3)nc(NCC3(N)COC3)c2c1 [Example 3, Form C of compound (I), (3-Amino-oxetan-3-ylmethyl)-[2-(5,5-dioxo-5,6,7,9-tetrahydro-5lambda*6*-thia-8-aza-benzocyclohepten-8-yl)-6-methyl-quinazolin-4-yl]-amine] | 99.28% | 99.32% | 99.30% | 0.11 mg/mL | 6.63 | – | 5.26 | 3.81 mg/mL | 4.92 | 0.04% water sorption @80% RH | much improved hygroscopicity than Form D | 1.88 mg/mL | – |
| Cc1ccc2nc(N3CCS(=O)(=O)c4ccccc4C3)nc(NCC3(N)COC3)c2c1 [Example 1, Form A of compound (I), (3-Amino-oxetan-3-ylmethyl)-[2-(5,5-dioxo-5,6,7,9-tetrahydro-5lambda*6*-thia-8-aza-benzocyclohepten-8-yl)-6-methyl-quinazolin-4-yl]-amine] | – | – | – | 0.12 mg/mL | 6.60 | – | 5.31 | 2.40 mg/mL | 4.80 | 0.25% water sorption @80% RH | much improved hygroscopicity than Form D | 1.72 mg/mL | – |
| Cc1ccc2nc(N3CCS(=O)(=O)c4ccccc4C3)nc(NCC3(N)COC3)c2c1 [Example 4, Form D of compound (I), (3-Amino-oxetan-3-ylmethyl)-[2-(5,5-dioxo-5,6,7,9-tetrahydro-5lambda*6*-thia-8-aza-benzocyclohepten-8-yl)-6-methyl-quinazolin-4-yl]-amine] | – | – | – | – | – | – | – | – | – | 7.52% water sorption @80% RH | not suitable for further drug development | – | – |
| Cc1ccc2nc(N3CCS(=O)(=O)c4ccccc4C3)nc(NCC3(N)COC3)c2c1 [Example 6, Form F of compound (I), (3-Amino-oxetan-3-ylmethyl)-[2-(5,5-dioxo-5,6,7,9-tetrahydro-5lambda*6*-thia-8-aza-benzocyclohepten-8-yl)-6-methyl-quinazolin-4-yl]-amine] | 99.42% | 99.43% | 99.62% | 1.58 mg/mL | 4.99 | – | 5.18 | – | 3.15 | 0.50% water sorption @80% RH | much improved hygroscopicity than Form D | 1.99 mg/mL | – |
| Cc1ccc2nc(N3CCS(=O)(=O)c4ccccc4C3)nc(NCC3(N)COC3)c2c1 [Example 2, Form B of compound (I), (3-Amino-oxetan-3-ylmethyl)-[2-(5,5-dioxo-5,6,7,9-tetrahydro-5lambda*6*-thia-8-aza-benzocyclohepten-8-yl)-6-methyl-quinazolin-4-yl]-amine] | – | – | 99.81% | – | – | – | – | – | – | – | – | – | 99.80% |
